This is an account of results in publication PMC3069055, “Structural Asymmetry of Phosphodiesterase-9, Potential Protonation of a Glutamic Acid, and Role of the Invariant Glutamine” (PLoS ONE, 2011).

Where “and” joins values, the source holds several entries; their conditions need not be identical. Equal entries are not always repeated. Where two headings read alike, the source gives them in different places.

Data set [1] addresses T1, PDE9A2 E406A mutant (Homo sapiens, UniProt O76083, E466A).
T1 construct: The coding region for residues 181-506 of PDE9A2 was amplified by PCR; inferred from vector pET15b and Ni-NTA purification) (N); made in house; host or cells: E. coli BL21 (Codonplus)
The experiment in a line: PDE9A2 enzymatic assay, IC50 of inhibitors (3H-cGMP substrate). The data set is classed as biochemical. As to the method: (§1) Each measurement was repeated two times. The reaction was carried out at room temperature for 15 min and then terminated by the addition of 0.2 M ZnSO4 and 0.2 M Ba(OH)2. […] Vmax and KM values were calculated by nonlinear regression on the curve of velocity versus substrate concentration and also by Eadie-Hofstee plot. […] The IC50 values were calculated by nonlinear regression.

Data set [2] addresses T2, PDE9A2 Q453E mutant (PDE9Q453E) (Homo sapiens, UniProt O76083, Q513E).
T2 construct: The catalytic domain of the PDE9Q453E mutant (10–15 mg/mL, amino acids 181–506); made in house; host or cells: E. coli BL21 (Codonplus)
The description is as above. The data set is classed as biochemical. As to the method:
as §1

Data set [3] concerns the target T3, wild type PDE9A2 catalytic domain (Homo sapiens, UniProt O76083).
T3 construct: The coding region for residues 181-506 of PDE9A2 was amplified by PCR; inferred from vector pET15b and Ni-NTA purification) (N); made in house; host or cells: E. coli BL21 (Codonplus)
The data set is described as above. The data set is classed as biochemical. On the procedure:
as §1

The target of data set [4] is T1, PDE9A2 E406A mutant. The data set can be described thus: Enzymatic assay, kinetic parameters with cAMP and cGMP as substrates. The data set is classed as biochemical. On the procedure:
as §1

Data set [5] addresses T2, PDE9A2 Q453E mutant (PDE9Q453E). The description is as above. The data set is classed as biochemical. On the procedure: as §1
Data set [6] deals with T3, wild type PDE9A2 catalytic domain. Described as above. The data set is classed as biochemical. The settings on record: substrate. On the procedure: as §1
The test system of a further data set is PDE5A Q817A mutant. The settings on record: PDE5A Q817A versus wild type; cited from earlier work.
Data set [7] concerns the molecule itself. The data set can be described thus: crystal structure; PDE9Q453E catalytic domain (10-15 mg/mL) co-crystallised with 2 mM IBMX, hanging drop, 2.0 M Na formate, 0.1 M HEPES pH 7.5, 5% xylitol, 4°C; (S)-BAY73-6691 complex by soaking; two molecules in the asymmetric unit.
The mark [8] stands for this setting: E406A compared with wild type enzyme.

T1 sequence (O76083 241-566 E466A): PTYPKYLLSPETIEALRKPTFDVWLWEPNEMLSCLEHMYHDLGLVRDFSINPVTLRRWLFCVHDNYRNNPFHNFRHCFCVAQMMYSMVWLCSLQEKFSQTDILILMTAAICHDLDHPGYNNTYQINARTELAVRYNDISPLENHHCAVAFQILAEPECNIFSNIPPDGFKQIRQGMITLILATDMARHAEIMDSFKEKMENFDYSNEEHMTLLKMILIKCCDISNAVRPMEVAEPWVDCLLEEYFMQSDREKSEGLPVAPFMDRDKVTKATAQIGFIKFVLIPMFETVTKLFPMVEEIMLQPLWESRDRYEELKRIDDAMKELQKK
T3 sequence (O76083 241-566): as the sequence (O76083 241-566 E466A) above, with A226E counted along it

What is called IC50 is the point on the concentration scale where inhibition reaches its midpoint. Consider `CCCOc1ccccc1-c1nc2nn[nH]c2c(=O)[nH]1` [Zaprinast], for which the IC50 at PDE9A2 E406A mutant [1] (E406A mutant, 30 nM 3H-cGMP, read-out: IC50) was determined as 7.6 ± 1.1 µM; in data set [2] (Q453E mutant, 30 nM 3H-cGMP) it was 53.7 ± 1.2 µM; in data set [3] (wild type enzyme, 30 nM 3H-cGMP, read-out: IC50), 15.9 ± 1.2 µM.
For the molecule `CC(C)Cn1c(=O)n(C)c(=O)c2[nH]cnc21` [IBMX, 3-isobutyl-1-methylxanthine], the IC50 is 31.7 ± 1.1 µM on PDE9A2 E406A mutant [1] and 53.9 ± 1.1 µM in data set [3].
Regarding `C[C@@H](Cc1nc2c(cnn2-c2ccccc2Cl)c(=O)[nH]1)C(F)(F)F` [(S)-BAY73-6691, 1-(2-chlorophenyl)-6-(3,3,3-trifluoro-2-methylpropyl)-1H-pyrazolo [3,4-d]pyrimidin-4(5H)-one], in data set [2] (Q453E IC50 relative to wild type IC50), the “fold increase of IC50 (affinity decrease), Q453E mutant versus wild type” value is > 1800 fold and 1800 fold.
As usually defined, the Km is the substrate concentration at which the rate is half of its maximum. What is called Vmax is the rate approached at saturating substrate. As to `Nc1nc2c(ncn2[C@@H]2O[C@@H]3COP(=O)(O)O[C@H]3[C@H]2O)c(=O)[nH]1` [cGMP], on PDE9A2 E406A mutant [4] (setting [8]), the “fold reduction of apparent affinity, E406A versus wild type” value was found to be 2 fold and the “fold reduction of catalytic activity, E406A versus wild type” value is reported as 2 fold. Moreover, at PDE9A2 E406A mutant [4] (E406A, substrate), the Michaelis constant (Km) came out at 0.311 ± 0.04 µM, the Vmax was 0.129 ± 0.004 µmol/mg/min and the kcat is 0.08±0.00 S^−1. In data set [5] (Q453E compared with wild type enzyme), the “fold loss of enzymatic efficacy kcat/KM, Q453E versus wild type” value is “about 50 fold”. Further, in data set [5] (Q453E, substrate), the Michaelis constant (Km) is 2.8 ± 0.18 µM, the Vmax was 0.139 ± 0.003 µmol/mg/min and the kcat came out at 0.09±0.00 S^−1. Moreover, in data set [6], the Km turned out to be 0.113 ± 0.013 µM, the Vmax came to 0.285 ± 0.008 µmol/mg/min and the kcat was 0.18±0.00 S^−1. The “fold reduction of cGMP affinity by Q817A mutation” value with PDE5A Q817A mutant is recorded as “about 60 fold”.

B1: catalytic domain of the PDE9A2 Q453E mutant (amino acids 181-506) (domain or fragment, human, UniProt O76083-2 181-506, looked up)
chain: PTYPKYLLSPETIEALRKPTFDVWLWEPNEMLSCLEHMYHDLGLVRDFSINPVTLRRWLFCVHDNYRNNPFHNFRHCFCVAQMMYSMVWLCSLQEKFSQTDILILMTAAICHDLDHPGYNNTYQINARTELAVRYNDISPLENHHCAVAFQILAEPECNIFSNIPPDGFKQIRQGMITLILATDMARHAEIMDSFKEKMENFDYSNEEHMTLLKMILIKCCDISNEVRPMEVAEPWVDCLLEEYFMQSDREKSEGLPVAPFMDRDKVTKATAEIGFIKFVLIPMFETVTKLFPMVEEIMLQPLWESRDRYEELKRIDDAMKELQKK
notes: phosphodiesterase 9A, isoform PDE9A2, human, catalytic domain, residues 181-506, GenBank BC009047; numbers count on: PDE9A2; also called PDE9Q453E; PDE9 Q453E mutant; source: E. coli BL21 (Codonplus), purified (Ni-NTA, Q-Sepharose, Sephacryl S300)
For the molecule B1, the binding result in data set [7] was “binds”.
